{
  "source": "a melting point compilation (Tetko et al.)",
  "data": [
    {"units": {"melting point": "°C"}, "values": [
      {"smiles": "COc1ccc(NC(=O)c2ccc(Br)cc2)c(C)c1", "melting point": "164 to 166"},
      {"smiles": "CC(C)(C)CS(N)(=O)=O", "melting point": "119 to 121"},
      {"smiles": "COC(=O)c1ccc(Oc2ccc([N+](=O)[O-])cc2)nn1", "melting point": "194 to 196"},
      {"smiles": "Cc1cccc(C(=O)CC#N)c1C", "melting point": "56 to 58"},
      {"smiles": "CN(C)CCN1C(=O)C(=O)c2cc(Br)ccc21", "melting point": "102 to 104"},
      {"smiles": "Cn1cc(N2CCCC(Br)C2=O)cn1", "note": "(configuration not stated)", "melting point": "121 to 123"},
      {"smiles": "Sc1cnnc2ccccc12", "melting point": "80 to 82"},
      {"smiles": "Cc1cc(C(N)C(=O)O)cc(C)c1O", "note": "(configuration not stated)", "melting point": "203 to 205"},
      {"smiles": "Nc1nc2cc(Cl)ccc2n1CCCn1ccnc1", "melting point": "229 to 231"},
      {"smiles": "CCCc1cc(C(=O)O)sc1C", "melting point": "94 to 96"},
      {"smiles": "O=C(CCl)Nc1ccccc1[N+](=O)[O-]", "melting point": "91 to 93"},
      {"smiles": "Nc1sc2c(c1C(=O)c1ccc(F)cc1)CCC2", "melting point": "139 to 141"},
      {"smiles": "CS(=O)(=O)c1ccc(C2CNCCO2)cc1", "note": "(configuration not stated)", "melting point": "109 to 111"},
      {"smiles": "O=C(c1cc(Cl)ccn1)N1CCCCC1", "melting point": "60 to 62"},
      {"smiles": "COc1ccccc1NS(=O)(=O)c1ccc(O)c(C(=O)O)c1", "melting point": "172 to 174"},
      {"smiles": "NC(=O)c1ccc(S(N)(=O)=O)cc1", "melting point": "243 to 245"},
      {"smiles": "Nc1c(C(=O)O)cc([N+](=O)[O-])cc1[N+](=O)[O-]", "melting point": "266 to 268"},
      {"smiles": "O=C(Nc1nnc(-c2ccccn2)s1)OCC(F)(F)F", "melting point": "246 to 248"},
      {"smiles": "Nc1cc(S(N)(=O)=O)ccc1S", "melting point": "220 to 222"},
      {"smiles": "CN(c1ccc(OCC(=O)O)cc1)S(=O)(=O)c1cccs1", "melting point": "145 to 147"},
      {"smiles": "O=C(O)c1cccc(C(F)(F)C(F)(F)F)c1", "melting point": "94 to 96"},
      {"smiles": "NC1CN(S(=O)(=O)c2ccc3c(c2)OCCO3)C1", "melting point": "124 to 126"},
      {"smiles": "NS(=O)(=O)Cc1cc(Cl)ccc1F", "melting point": "186 to 188"},
      {"smiles": "C=CC(=O)Nc1cc(F)cc(F)c1", "melting point": "155 to 157"},
      {"smiles": "O=C(O)CCSc1ccc2c(c1)OCCO2", "melting point": "87 to 89"},
      {"smiles": "CCCc1ncc(C(=O)O)s1", "melting point": "135 to 137"},
      {"smiles": "O=c1[nH]c(CCl)nc2sc(-c3ccccc3)cc12", "melting point": "286 to 288"},
      {"smiles": "COC(=O)c1nc2n(n1)CCCN2", "melting point": "173 to 175"},
      {"smiles": "Nc1nc(N)nc(CCl)n1", "melting point": "221 to 223"},
      {"smiles": "O=C(O)C1(c2cccc(C(F)(F)F)c2)CCOCC1", "melting point": "147 to 149"},
      {"smiles": "ClCc1csc(-c2ncccn2)n1", "melting point": "147 to 149"},
      {"smiles": "Nc1cc(-c2ccc(F)cc2F)on1", "melting point": "122 to 124"},
      {"smiles": "O=C(O)C(Cc1ccccc1)NC(=O)C(c1ccccc1)c1ccccc1", "note": "(configuration not stated)", "melting point": "149 to 151"},
      {"smiles": "CC(NC(=O)CCl)c1ccc2ccccc2c1", "note": "(configuration not stated)", "melting point": "201 to 203"},
      {"smiles": "CN(Cc1cc(C#N)ccc1F)C(=O)CCl", "melting point": "103 to 105"},
      {"smiles": "CNc1cc(-c2ccc(OC)cc2)[nH]n1", "melting point": "122 to 124"},
      {"smiles": "Oc1ccc2nc[nH]c2c1", "melting point": "215 to 217"},
      {"smiles": "CC(C)(C)OC(=O)Nc1ccc(C(=O)O)c(O)c1", "melting point": "158 to 160"},
      {"smiles": "O=C1c2ccccc2C(=O)N1C1CCC(O)CC1", "note": "(configuration not stated)", "melting point": "174 to 176"},
      {"smiles": "Cc1cccc(CSCC(=O)O)c1", "melting point": "74 to 76"},
      {"smiles": "NC(=O)c1ccc(Cl)cc1O", "melting point": "188 to 190"},
      {"smiles": "O=C1OCCc2cnc3nc(C(F)(F)F)nn3c21", "melting point": "185 to 187"},
      {"smiles": "C=CCn1c(N)c(C(N)=S)sc1=S", "melting point": "195 to 197"},
      {"smiles": "O=C(O)C1(c2cccc(Br)c2)CCOCC1", "melting point": "152 to 154"},
      {"smiles": "CC(Cl)C(=O)Nc1ccccc1C(F)(F)F", "note": "(configuration not stated)", "melting point": "92 to 94"},
      {"smiles": "O=C(O)C(c1ccccc1)N1CCS(=O)(=O)CC1", "note": "(configuration not stated)", "melting point": "165 to 167"},
      {"smiles": "OCCNc1ccc(Cl)nn1", "melting point": "133 to 135"},
      {"smiles": "Brc1ccccc1Cc1nn[nH]n1", "melting point": "135 to 137"},
      {"smiles": "CC(C)c1[nH]ncc1C(=O)O", "melting point": "216 to 218"},
      {"smiles": "Nn1c(=O)[nH]c2ccccc2c1=O", "melting point": "297 to 299"},
      {"smiles": "COC(=O)Cn1ncc2c(=O)[nH]cnc21", "melting point": "212 to 214"},
      {"smiles": "CC(C)(C)NC(=O)NCCCl", "melting point": "104 to 106"},
      {"smiles": "O=CC(Br)C=Nc1cnc(Br)cn1", "note": "(configuration not stated)", "melting point": "177 to 179"},
      {"smiles": "NC(CCl)=NO", "melting point": "83 to 87"},
      {"smiles": "O=C(O)C=Cc1cncc2ccccc12", "melting point": "260 to 262"},
      {"smiles": "CCOC(=O)c1c(C2CCCCC2)csc1N", "melting point": "109 to 111"},
      {"smiles": "COc1cccc(-c2c[nH]cc2C(=O)O)c1", "melting point": "143 to 145"},
      {"smiles": "COc1cccc(CC2(C(=O)O)CC3CCC2C3)c1", "note": "(configuration not stated)", "melting point": "67 to 69"},
      {"smiles": "COC(=O)Nc1cccc(N)c1", "melting point": "62 to 64"},
      {"smiles": "O=Cc1ccc(OCc2ncon2)cc1", "melting point": "98 to 100"},
      {"smiles": "Cc1cc(C(=O)O)nn1-c1ccccn1", "melting point": "157 to 159"},
      {"smiles": "N#Cc1cccc(Br)c1N=C=O", "melting point": "64 to 66"},
      {"smiles": "CS(=O)(=O)Nc1cc(N)ccc1F", "melting point": "154 to 156"},
      {"smiles": "COc1cc2c(cc1OC)C(c1cccs1)NCC2", "note": "(configuration not stated)", "melting point": "112 to 115"},
      {"smiles": "O=C(O)C(F)=C1CCCC1", "melting point": "83 to 85"},
      {"smiles": "O=CC(C=O)SCc1ccccc1", "melting point": "128 to 130"},
      {"smiles": "COc1ccc(N)cc1S(=O)(=O)N1CCCCC1", "melting point": "93 to 95"},
      {"smiles": "CCOC(=O)c1oc2ccc(Br)cc2c1C", "melting point": "89 to 91"},
      {"smiles": "Cn1ncc2c(Cl)nc(Cl)nc21", "melting point": "86 to 88"},
      {"smiles": "O=C(NC1CCCNC1)c1ccccc1", "note": "(configuration not stated)", "melting point": "130 to 132"},
      {"smiles": "COC(=O)c1c[nH][nH]c1=O", "melting point": "209 to 211"},
      {"smiles": "O=C1C=C(Br)C(=O)N1c1ccccc1", "melting point": "159 to 161"}
    ]}
  ]
}
